The subject of assay [1] is CAM75 (75 kDa cell adhesion molecule fragment) generation by serine protease. Kind of assay: Incubation of hippocampal homogenates, CAM75 fragment by immunoblot. The assay is classed as biochemical, rat. The note with it: membranes incubated for one hour with 500 μM inhibitor; controls 45±8%; n=3-5, p=0.03. On the procedure:
Hippocampi were rapidly extracted from adult male Sprague-Dawley rats and submerged in ice-cold buffer (10 mM Tris-base, 100 mM NaCl; pH 7.4) homogenized on ice for 1 min in 5 mls of the same buffer and then centrifuged for 3 min. at 1000 g (4° C.). The pellet was discarded and the resulting supernatant was immediately incubated at 37° C. with or without EDTA, EGTA, or AEBSF. After incubation, samples were ultracentrifuged (as above) and processed for immunoblotting. Quantification of immunoblots was performed by densitometry with normalization of the immunoreactivity levels at 0 minutes to 100 percent (n=4 or 5; mean±S.E.M. for all time points).
Similar results are obtained with brain homogenates, where a 65 kDa fragment and CAM75 are produced upon incubation in the presence of EDTA or EGTA (see FIG. 1). As noted, fragments similar in size to CAM75 are generated by cleavage of any of several NCAM relatives by serine-type proteases. That CAM75 also arises from an enzyme of this type was confirmed with the selective inhibitor 4-(2-Aminoethyl)-benzenesulfonyl fluoride (AEBSF); a 12±8% increase in the fragment occurred in membranes incubated for one hour with 500 μM of the inhibitor while a 45±8% increase was obtained in controls (n=3-5; p=0.03).
(In general: In western blotting, separated proteins are transferred to a membrane and probed.)

The subject of assay [2] is LTP in hippocampal slices (CA1 field EPSPs). Kind of assay: Long-term potentiation in hippocampal slices (theta burst stimulation, field EPSPs). It counts as cell-based, rat. On the procedure: Brains from male Sprague-Dawley rats (190-225 g) were rapidly removed and placed into ice cold aCSF. Hippocampi were then cut transversely into 400-μm slices and transferred to a recording chamber perfused with aCSF (35° C.), where they were exposed to a humidified gas mixture of 95% oxygen and 5% carbon dioxide. After an hour recovery period, field recordings were made with a glass recording electrode containing 2 M NaCl positioned in the stratum radiatum of CAlb. NAC (Eclectex Enterprises; Irvine Cailf.) was used to record field EPSPs elicited by delivering single stimulation pulses (0.1 ms, 1-15 μA) to one of two bipolar electrodes positioned in Schaffer-commissural projections in CAla and CAlc. Each projection was stimulated every 20 sec with 10 sec interval between each electrode. After establishing a stable baseline (10-20 min), LTP was induced using a theta burst stimulation (TBS) paradigm [J. Larson et al., Brain Res. 368, 347-350 (1986)] in one pathway. After 30 minutes the perfusion media was switched to one containing 250 μM AEBSF. Forty-five minutes later TBS was applied to the non-potentiated pathway. The AEBSF/aCSF mixture was perfused for an additional 10 minutes, after which regular aCSF was added. In another set of slices TBS stimulation was applied during aCSF perfusion, and five minutes after LTP induction 250 μM AEBSF was infused for the remainder of the experiment. Potentiation for all groups was tabulated as the percent increase above initial baseline slopes.
The magnitude of this effect varied considerably across slices but within slice differences between potentiation elicited before (control) vs. after (experimental) infusion of the drug could not be detected. However, the development of LTP in the minutes following induction was clearly different as is evident in FIG. 5A. […] Mean percent potentiation at this time point was 103±5% for experimental and 134±3% for control pathways (n=6, p=0.005).

The target of assay [3] is T1, tissue plasminogen activator (tPA) (Homo sapiens, UniProt P00750).
T1 construct: purchased Sigma
T1 sequence (P00750 311-562 limits assumed, species assumed): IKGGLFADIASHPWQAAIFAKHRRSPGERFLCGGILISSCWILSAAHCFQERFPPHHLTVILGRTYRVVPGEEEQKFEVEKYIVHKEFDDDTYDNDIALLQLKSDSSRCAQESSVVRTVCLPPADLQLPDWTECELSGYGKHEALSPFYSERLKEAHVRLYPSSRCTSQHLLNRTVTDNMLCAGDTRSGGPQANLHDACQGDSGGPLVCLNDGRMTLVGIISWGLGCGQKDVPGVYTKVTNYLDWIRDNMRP
T1 sequence (P00750 36-310 partner limits assumed, species assumed): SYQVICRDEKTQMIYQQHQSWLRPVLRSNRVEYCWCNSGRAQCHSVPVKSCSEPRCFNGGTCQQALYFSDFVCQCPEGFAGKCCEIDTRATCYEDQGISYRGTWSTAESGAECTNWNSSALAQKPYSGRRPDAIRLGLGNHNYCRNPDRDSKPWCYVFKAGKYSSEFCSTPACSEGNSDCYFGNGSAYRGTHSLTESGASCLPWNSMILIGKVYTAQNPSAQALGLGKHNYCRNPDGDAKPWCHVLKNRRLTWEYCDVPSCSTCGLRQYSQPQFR
Put plainly: Incubation of synthetic substrates with tPA. The assay is classed as biochemical. On the procedure: 1.5 μg/ml of tissue plasminogen activator (tPA, two chain, Sigma) was incubated at 23 ° C. with 40 μM ASLA- and A-AMC substrates (with or without the inhibitor AEBSF) in a final volume of 1.3 mls aCSF. After one hour of incubation the samples were put in the fluorometer and quantification of proteolytic activity normalized the readings from the A-AMC substrate to 100 (arbitrary units).

For assay [4], the system named is seizure-proneness (after-discharge duration). Kind of assay: Kindling by repeated electrical stimulation of hippocampus, after-discharge duration. The assay is classed as in vivo, rat. The note with it: 50 mgs/kg injected once prior to first stimulation; tested 10 days later; control rats ~400%. On the procedure: Rats were divided into two groups: Group I rats were injected with 50 mgs/kg AEBSF and Group II (control) rats were injected with saline. The rats of both groups were then stimulated by direct electrical impulses to the dentate gyrus region of the hippocampus (40 times/5 mins apart)(a paradigm known to promote “kindling”, which can be thought of as an increase in seizure-proneness). The after-discharge duration (AD-duration) was then measured in each group. After a 10 day waiting period, the rats were again stimulated (5 times/20 mins apart)(no drugs were administered). The AD-duration was again measured.

In assay [5] the test system is pre-existing seizure proneness (after-discharge duration). Put plainly: Restimulation of previously kindled rats (pre-existing seizure proneness), after-discharge duration. The assay is classed as in vivo, rat. The note with it: AEBSF (50 mgs/ml) injection prior to stimulations. From the text: The control group rats from III, above, were restimulated, with four of the rats of this group receiving a saline injection prior to stimulation and the remaining four rats receiving AEBSF (50 mgs/ml) injection prior to stimulations. […] The AD duration average of the control group was 207±103% of their original average, while the AD duration of the AEBSF injected rats was 26±77% of their original average.

The test system of assay [6] is endogenous protease(s) found in hippocampal ultrasupernatants. Kind of assay: Cleavage of fluorescent AMC substrates by hippocampal ultrasupernatants. The assay is classed as biochemical, rat. The note with it: 100 μM substrate. On the procedure: Hippocampi were rapidly extracted from adult male Sprague-Dawley rats and submerged in ice-cold artificial cerebrospinal fluid (aCSF) which consisted of (in mM): 124 NaCl, 3 KCl, 1.25 KH2PO4, 2.5 MgSO4, 3.4 CaCl2, 26 NaHCO3 and 10 glucose (pH 7.4), homogenized on ice for 1 min in 3 mls of the same buffer and then centrifuged for 5 min. at 1000 g (3° C.). The pellet was discarded and the resulting supernatant was ultracentrifuged at 200,000 g for 20 min. at 3° C. in a TLS-55 rotor (Beckman Instruments). The resulting ultrasupematant fraction was devoid of membrane-bound proteins and therefore represents a soluble protein fraction. This fraction was diluted to 50 μgs/ml in aCSF and incubated at room temperature with 100 μM of arginine linked to a fluorescent amido methyl-coumarin (AMC) substrate (Sigma Chemical Co), or to […] (Enzyme Systems Products; Livermore Cailf.) in the presence of differing concentrations of the serine protease inhibitor AEBSF (4-(2-Aminoethyl)benzenesulfonyl fluoride) (Sigma Chemical Co). Fluorescence was measured in a fluorometer (Sequoia-Turner Corp.) at 430 nm with stimulation at 360 nm. Quantification of proteolytic inhibition was performed by normalization of fluorescence in control tubes (i.e. those without added AEBSF) to 0 percent.
The serine protease substrate arginine-AMC (A-AMC) and a substrate made up of the CAM serine protease target sequence (arginine-serine-lysine-arginine) (ASLA-AMC) were both cleaved when incubated with soluble protein fractions (i.e. ultrasupernatants) from the hippocampus. This assay was then used to identify drugs and dosages that prevent extracellular CAM cleavage by endogenous proteases. The serine protease inhibitor AEBSF (4-(2-Aminoethyl)-benzenesulfonyl fluoride) inhibited proteolysis of the CAM sequence (ASLA-AMC) and did so to a much greater degree than it blocked the proteolysis of A-AMC. At 250 and 1000 uM A-AMC cleavage was blocked by 15 and 33 percent, respectively, while ASLA-AMC proteolysis was blocked by 44 and 70 percent. FIG. 3 (p≦0.0001).

Assay [7] has as its system NMDA receptors. Put plainly: NMDA receptor stimulation of organotypic hippocampal cultures, CAM75 immunoblot. The assay is classed as cell-based, rat.
Excerpt: The culture medium (Bahr, et al. “Stable maintenance of glutamate receptors and other synaptic components in long-term hippocampal slices,” Hippocampus 5, 425-439 (1995))(CM) was changed every other day. Slices were maintained in culture for 2-3 weeks and then subjected to a brief NMDA receptor stimulation paradigm (Thibault et al., “Long-lasting physiological effects of bath applied N-methyl-D-aspartate,” Brain Res. 476, 170-173 (1989) and Malenka, “Postsynaptic factors control the duration of synaptic enhancement in area CA 1 of the hippocampus,” Neuron 6, 53-60 (1991)). To activate NMDA receptors the slices were treated with 400 μM NMDA, 2 ; mM CaCl2 (4 mM total) and 1 mM glycine. Control slices were also subjected to this cocktail but were first pretreated for 10 minutes with either 100 μM AP5 (an NMDA antagonist), or with kynurenic acid (2 mM) and MK-801 (100 μM), in CM. After 30 seconds of incubation with the NMDA cocktail, the solutions were removed and CM plus 2 mM AP5 was added to all slices. Tissue was harvested and processed for immunoblotting as described (See Bahr et al., supra). […] Protein concentrations for the non-soluble pellets (i.e. all tissue left after the supernatant was extracted) were determined with a BSA standard curve. […] Quantification of immunobands was determined without knowledge of sample type by densitometry.
The test system of assay [8] is CAM75 and Ng-CAM fragment in hippocampus. Kind of assay: In vivo detection of NMDA receptor mediated CAM cleavage after kainate seizures. More on the design: species or system rat. On the procedure:
Adult male rats were injected systemically with either: 10 mg/kg kainate (pH 7.4), 10 mg/kg kainate and 60 mg/kg ketamine (plus a second injection of 30 mg/kg ketamine one hour later), or saline. Behavioral responses were monitored (all animals in both sets injected with kainate reached seizure stages 4 or 5) and after two hours rats were anaesthetized, their hippocampi rapidly extracted and submerged in ice-cold buffer (10 mM Tris-base, 100 mM NaCl, 2 mM EDTA, and 2 mM EGTA; pH 7.4), homogenized on ice for 1 min in 5 mls of the same buffer, and then centrifuged for 3 min. at 1000 g (4° C.). The pellet was discarded and fractions of the resulting supernatants were immediately ultracentrifuged. Protein normalization and immunoblotting techniques were completed as described above. Quantification of CAM75 and the Ng-CAM fragment involved normalization of the immunoreactivity levels observed in saline injected rats to 100 percent (n=7-11; mean±S.E.M. for all groups).
Evidence for seizure induced extracellular cleavage at the consensus serine protease site was also obtained for a second adhesion molecule. Specifically, concentrations of an 80 kDa polypeptide detected by antibodies against Ng-CAM were increased by 603±140% (n=4, p=0.023) in ultrasupematant fractions from kainate injected rats.

With `NCCc1ccc(S(=O)(=O)F)cc1` [AEBSF, 4-(2-Aminoethyl)-benzenesulfonyl fluoride], the “increase in the CAM75 fragment” value in assay [1] was 12±8%. Moreover, in assay [2] (250 μM for 45 min before TBS, about one hour post-induction, control pathways 134±3%, n=6, p=0.005), the Mean percent potentiation stood at 103±5%. Moreover, the “effect on already established LTP (potentiation over the subsequent hour)” value in assay [2] (250 μM infused five or thirty minutes after induction) was “no effects on potentiation”. Also, the “effect on slope, amplitude, or waveform of monosynaptic field EPSPs” value in assay [2] (250 μM infused for forty-five minutes, before TBS) is listed as “no significant effect”. For the same compound, the “proteolytic activity of tPA blocked” value in assay [3] was “potently blocked”. Also, the “increase in AD-duration during the second testing period” value in assay [4] is “no increase in AD-duration”. Also, the “rats with no after discharges (no seizure-like activity)” value in assay [5] (four rats) is on record as “Two out of the four”. In assay [5] (tested 10 days after, saline group 207±103%), the “AD duration as percent of original average” value stood at 26±77%. Besides, the figures for the A-AMC cleavage blocked in assay [6] (250 uM AEBSF) and in assay [6] (1000 uM AEBSF) were 15% and 33%, respectively. Besides, the figures for the ASLA-AMC proteolysis blocked in assay [6] (250 uM AEBSF) and in assay [6] (1000 uM AEBSF) were 44% and 70%, respectively.

For `CN[C@H](CC(=O)O)C(=O)O` [NMDA], the “concentration of CAM75 in soluble fractions versus control tissue” value in assay [7] (30 seconds after a 30 second infusion of NMDA, n=12, p=0.0003) is recorded as “approximately twice”. Also, the “amount of CAM75 greater than in slices exposed to NMDA and an antagonistic drug” value in assay [7] (homogenates after 30 second infusion of NMDA, mean±sd, n=9, p<0.001) is reported as 77±41%.

Regarding `C=C(C)[C@H]1CN[C@H](C(=O)O)[C@H]1CC(=O)O` [kainic acid], the “CAM75 increase in the hippocampus” value in assay [8] (single injection 10 mg/kg, about 45 minutes of periodic seizures, saline = 100 percent, n=11, p=0.0002) stood at 598±85%. The “increase of 80 kDa polypeptide detected by antibodies against Ng-CAM” value in assay [8] (ultrasupernatant fractions from kainate injected rats, n=4, p=0.023) turned out to be 603±140%.

On to `CNC1(c2ccccc2Cl)CCCCC1=O` (centres unmarked) [ketamine], for which the “effect on kainate-induced CAM75 increase” value in assay [8] (60 mg/kg plus 30 mg/kg one hour later with 10 mg/kg kainate, n=7, p=0.03) is given as “substantially reduced this effect”.

Values taken from patent US20030144212A1, “USE OF SERINE PROTEASE INHIBITORS TO INHIBIT PATHOPHYSIOLOGY AND NEUROPATHOLOGY IN A HOST” (priority 2000, published 2003).
